We go through 4 molecules from the NIST ThermoML archive (doi:10.1021/je049657g).

The conditions of this data set: 298.15 K, Liquid; for viscosity: 101 kPa, Capillary tube (Ostwald / Ubbelohde) method; for mass density: 101.33 kPa.

± gives the expanded uncertainty stated by the source.

With `O=C1CCCN1` [2-pyrrolidinone], the viscosity was 13.19 ± 0.17 mPa·s and the mass density came out at 1106.82 ± 2 kg/m3.

Turning to `CC(=O)N(C)C` [N,N-dimethylethanamide], the viscosity came out at 0.944 ± 0.008 mPa·s and the mass density is 936.54 ± 1.4 kg/m3.

As to `CN1CCCC1=O` [N-methylpyrrolidone], the viscosity is reported as 1.672 ± 0.014 mPa·s and the mass density came to 1027.91 ± 1.6 kg/m3.

`CN(C)C=O` [dimethylformamide]: the viscosity turned out to be 0.804 ± 0.007 mPa·s and the mass density worked out at 943.65 ± 1.5 kg/m3.

Usually viscosity stands for the internal friction of a fluid under shear. As a reminder, the mass density is mass per unit of volume.
